Publication PMC12192077, “Leveraging Neural ODEs for Population Pharmacokinetics of Dalbavancin in Sparse Clinical Data” (Entropy, 2025)
Like-named read-outs stand apart in the source and are kept apart here.

Tests used:
clinical = details: in vivo
From the text: The dataset used in this study was collected from a cohort of 218 patients undergoing Dalbavancin treatment and who underwent therapeutic drug monitoring (TDM) of Dalbavancin at the IRCCS, Azienda Ospedaliero Universitaria di Bologna between April 2021 and December 2024. Dalbavancin is a long-acting antibiotic used for the treatment of skin and soft tissue infections and as a second-line agent in patients with staphylococcal infections, such as bone and joint infections, vascular prosthetic joint infections and endocarditis. At our center, Dalbavancin plasma exposure is optimized by means of TDM, which is the medical practice of measuring drug concentration in plasma in order to guide drug dosing for attaining a pre-defined target of efficacy. Dalbavancin is a semisynthetic lipoglycopeptide derived from the teicoplanin-like antibiotic A-40926, which is an agent naturally produced by the actinomycete Nonomuria spp. […] The long lipophilic side chain in the Dalbavancin molecule serves a dual purpose by both extending the half-life, as well as anchoring the compound to the membrane, which enhances its antimicrobial activity.
The data acquisition process involved recording patient covariates, drug administration details and serial blood sampling for pharmacokinetic analysis. Dalbavancin doses ranged from 350mg to 1500mg , with a total of 703 administrations recorded. Blood samples were obtained at various time points following drug administration, resulting in 669 concentration measurements. Standardized laboratory procedures were followed for quantifying Dalbavancin levels in plasma, ensuring accuracy and consistency across all samples.
To ensure robust model evaluation, we employed a cross-validation approach. Given the dataset size and the need for a balance between the training and validation data, we opted for a 6-fold cross-validation framework. This choice provides a good trade-off between statistical reliability and computational efficiency, allowing each model to be trained and validated on multiple subsets of the data while maintaining a sufficient amount of training data per fold.
Since the compartment models are systems of differential equations, the replacement of these equations with an NN is direct:(2a) dCc/dt=−CcCl/V1−CcQ/V1+CpQ/V2dCp/dt=CcQ/V1−CpQ/V2 (2b) dh(t)/dt=fnn(h(t),t;θ) The differential equation systems (2a) represent a simple two-compartment model with the four parameters that need to be fitted: V1 and V2 are the volumes of the central and peripheral compartments, Cl the clearance, Q the intercompartmental clearance and Cc and Cp the concentrations of the two compartments.
In addition to the main FNN, the model includes an additional parameter, the distribution volume ( VNODE ), which is learned through gradient descent with the whole FNN. […]

[1] = in vivo; cited from earlier work

SMILES: CN[C@H]1C(=O)N[C@@H]2Cc3ccc(cc3)Oc3cc4cc(c3O[C@@H]3O[C@H](C(=O)O)[C@@H](O)[C@H](O)[C@H]3NC(=O)CCCCCCCCC(C)C)Oc3ccc(cc3Cl)[C@@H](O)[C@@H]3NC(=O)[C@H](NC(=O)[C@@H]4NC(=O)[C@@H](NC2=O)c2cc(cc(O)c2Cl)Oc2cc1ccc2O)c1ccc(O)c(c1)-c1c(O[C@H]2O[C@H](CO)[C@@H](O)[C@H](O)[C@@H]2O)cc(O)cc1[C@@H](C(=O)NCCCN(C)C)NC3=O [Dalbavancin]
- clearance (clinical; human, Cl (clearance), SD): 0.9 mL/min
- Cl (clearance) (clinical; human, SD): 0.0367 ± 0.0006 L/h
- VNODE (distribution volume) (clinical): 5.7 ± 0.1 L
- VNODE,cov (distribution volume) (clinical; SD): 5.2 ± 0.8 L
- Cl (clearance) [1]: 0.031 ± 0.004 L/h
- Q (intercompartmental clearance) [1]: 0.038 ± 0.013 L/h
- V1 (volume of central compartment) [1]: 5.9 ± 0.3 L
- V2 (volume of peripheral compartment) [1]: 9.6 ± 1.4 L
